Measurements taken from US20040014047A1, “Antisense modulation of LIM domain kinase 1 expression” (Isis Pharmaceuticals Inc., priority 2002, published 2004).
Strand notation (5' to 3'): a small letter for the sugar, then the base; units joined by * are phosphorothioate-linked, units joined directly phosphodiester-linked; [ ] holds rarer units or linkages, { } end groups; capitals alone tell only the bases. e = 2'-O-(2-methoxyethyl) (MOE); [5mC] = 5-methylcytosine; d = 2'-deoxy (DNA)

Test system: human LIM domain kinase 1 mRNA
Test: Antisense inhibition of human LIM domain kinase 1 mRNA levels, quantitative real-time PCR, A549 cells (screen)
Format: cell-based
Conditions: quantitative real-time PCR, averages from two experiments, screening concentration not given (50 nM to 300 nM used herein)
Protocol: When cells reached 70% confluency, they were treated with oligonucleotide. […] Cells were harvested 16-24 hours after oligonucleotide treatment.
Vacuum was applied for 1 minute.
PCR reagents were obtained from Invitrogen Corporation, (Carlsbad, Calif.).
Total RNA is quantified using RiboGreenTM RNA quantification reagent from Molecular Probes.
Probes and primers to human LIM domain kinase 1 were designed to hybridize to a human LIM domain kinase 1 sequence, using published sequence information (GenBank accession number D26309.1, incorporated herein as SEQ ID NO:4). For human LIM domain kinase 1 the PCR primers were: forward primer: […] (SEQ ID NO: 5) reverse primer: […] (SEQ ID NO: 6) and the PCR probe was: FAM-[…]-TAMRA (SEQ ID NO: 7) where FAM is the fluorescent dye and TAMRA is the quencher dye.
All cytidine residues are 5-methylcytidines. […] Data are averages from two experiments in which A549 cells were treated with the oligonucleotides of the present invention. […] If present, “N.D.” indicates “no data”.

First: 206200 (antisense e[5mC]*eT*eG*eG*e[5mC]*dT*dG*dT*d[5mC]*d[5mC]*dA*dT*dG*d[5mC]*dT*e[5mC]*eT*eT*eG*eA) [compound 206200]
Second: 206201 (antisense eA*eG*eG*eT*eA*dG*dG*d[5mC]*d[5mC]*dA*dT*d[5mC]*d[5mC]*d[5mC]*dT*eG*eA*eT*eG*e[5mC]) [compound 206201]
The “% INHIB (inhibition of human LIM domain kinase 1 mRNA levels)” value (“% INHIB” below) of the first is higher: 76% for the first, 74% for the second.

Compared with “206202 (antisense eG*eT*e[5mC]*eT*e[5mC]*dG*dG*dT*dG*dG*dA*dT*dG*dA*dT*eG*eT*eT*e[5mC]*eA) [compound 206202]”, “206203 (antisense eT*eT*eG*eT*eG*dG*dG*dA*dG*dT*dT*dG*dA*dG*dG*eT*e[5mC]*eT*e[5mC]*eG) [compound 206203]” is lower in “% INHIB” value: 69% for the first, 55% for the second.

Compared with “206204 (antisense e[5mC]*eA*eT*eT*e[5mC]*dT*dT*dG*dT*dT*d[5mC]*dT*d[5mC]*dG*d[5mC]*eG*eG*eA*e[5mC]*e[5mC]) [compound 206204]”, “206205 (antisense eA*eA*eA*eG*eG*dA*dT*dG*dG*d[5mC]*d[5mC]*dT*d[5mC]*dT*dT*e[5mC]*eT*e[5mC]*eG*eG) [compound 206205]” is lower in “% INHIB” value: 81% for the first, 74% for the second.

Going from “206206 (antisense e[5mC]*eG*e[5mC]*e[5mC]*eG*dG*dT*dA*dG*dG*dT*d[5mC]*dT*d[5mC]*d[5mC]*e[5mC]*eA*eG*eA*eA) [compound 206206]” to “206207 (antisense eG*eT*eG*eG*e[5mC]*d[5mC]*d[5mC]*dT*dG*dG*d[5mC]*dT*d[5mC]*dA*dG*eT*e[5mC]*eG*eG*eG) [compound 206207]”, the “% INHIB” value rises from 28% to 80%.

Compared with “206208 (antisense e[5mC]*e[5mC]*eA*e[5mC]*e[5mC]*dT*d[5mC]*d[5mC]*d[5mC]*dG*d[5mC]*dG*dG*dA*dG*eG*eA*eA*eT*e[5mC]) [compound 206208]”, “206209 (antisense e[5mC]*eT*e[5mC]*eT*eG*dG*dG*d[5mC]*d[5mC]*dA*d[5mC]*dG*dG*d[5mC]*dA*eG*eA*eG*eA*eG) [compound 206209]” is higher in “% INHIB” value: 79% for the first, 80% for the second.

Going from “206210 (antisense e[5mC]*e[5mC]*eT*e[5mC]*e[5mC]*dA*dG*dG*dG*dA*dG*d[5mC]*dT*dA*dT*eG*eG*eA*e[5mC]*e[5mC]) [compound 206210]” to “206211 (antisense eT*e[5mC]*eT*eG*e[5mC]*d[5mC]*d[5mC]*dT*dG*dA*dT*dG*dT*dG*d[5mC]*eG*e[5mC]*e[5mC]*e[5mC]*eT) [compound 206211]”, the “% INHIB” value falls from 83% to 59%.

Going from “206213 (antisense e[5mC]*e[5mC]*e[5mC]*eT*eG*dA*dG*dG*d[5mC]*dT*dT*dG*dG*dT*dA*e[5mC]*e[5mC]*eT*eG*e[5mC]) [compound 206213]” to “206215 (antisense eG*e[5mC]*eA*eG*e[5mC]*dT*dG*d[5mC]*dT*dG*d[5mC]*dT*dG*d[5mC]*dA*eG*e[5mC]*e[5mC]*eG*eT) [compound 206215]”, the “% INHIB” value rises from 14% to 75%.

Compared with “206216 (antisense eT*e[5mC]*eA*e[5mC]*eA*dG*dT*dT*dT*dT*dA*dA*dT*dA*d[5mC]*eT*eT*e[5mC]*e[5mC]*eT) [compound 206216]”, “206217 (antisense eA*eA*eG*e[5mC]*eT*dT*d[5mC]*dA*d[5mC]*dA*dG*dT*dT*dT*dT*eA*eA*eT*eA*e[5mC]) [compound 206217]” is higher in “% INHIB” value: 0% for the first, 68% for the second.

Compared with “206218 (antisense eT*eG*eA*eG*eA*dA*dA*dG*d[5mC]*dT*dT*d[5mC]*dA*d[5mC]*dA*eG*eT*eT*eT*eT) [compound 206218]”, “206220 (antisense e[5mC]*eA*eA*eA*eG*dT*dG*d[5mC]*dA*d[5mC]*dT*dG*dA*dG*dA*eA*eA*eG*e[5mC]*eT) [compound 206220]” is higher in “% INHIB” value: 43% for the first, 59% for the second.

Compared with “206221 (antisense eT*e[5mC]*e[5mC]*e[5mC]*eA*d[5mC]*d[5mC]*dT*d[5mC]*d[5mC]*d[5mC]*dT*dA*dA*dG*eT*e[5mC]*eA*eT*eG) [compound 206221]”, “206222 (antisense eG*eG*eT*eG*eG*dG*dT*d[5mC]*d[5mC]*d[5mC]*dA*d[5mC]*d[5mC]*dT*d[5mC]*e[5mC]*e[5mC]*eT*eA*eA) [compound 206222]” is higher in “% INHIB” value: 17% for the first, 63% for the second.

First: 206223 (antisense eG*eG*eT*eG*eT*dG*dT*d[5mC]*dA*d[5mC]*d[5mC]*dT*dT*dG*dA*eT*eA*eG*e[5mC]*e[5mC]) [compound 206223]
Second: 206224 (antisense eG*e[5mC]*eT*eG*e[5mC]*dT*dG*d[5mC]*dA*dG*d[5mC]*d[5mC]*dG*dT*dA*eT*eG*eA*eA*eA) [compound 206224]
The “% INHIB” value of the first is lower: 62% for the first, 66% for the second.

Going from “206225 (antisense eG*eG*eA*eG*eT*dG*dA*dA*dA*dG*d[5mC]*dA*d[5mC]*d[5mC]*d[5mC]*eA*eG*e[5mC]*eT*eG) [compound 206225]” to “206226 (antisense eT*eA*eG*eG*eT*d[5mC]*d[5mC]*d[5mC]*dA*d[5mC]*dA*dG*d[5mC]*d[5mC]*d[5mC]*e[5mC]*eT*eG*eA*eG) [compound 206226]”, the “% INHIB” value falls from 74% to 9%.

Compared with “206227 (antisense e[5mC]*eT*e[5mC]*eA*eG*dA*d[5mC]*d[5mC]*d[5mC]*dT*dT*dG*dA*dG*dT*eT*eA*e[5mC]*eT*eG) [compound 206227]”, “206228 (antisense eA*e[5mC]*eT*eG*e[5mC]*d[5mC]*dT*d[5mC]*dT*d[5mC]*dG*dG*dG*dT*dT*e[5mC]*eA*eA*eG*e[5mC]) [compound 206228]” is higher in “% INHIB” value: 68% for the first, 69% for the second.

Going from “206229 (antisense eG*eT*e[5mC]*eA*e[5mC]*dA*dA*d[5mC]*dA*d[5mC]*d[5mC]*dT*dG*d[5mC]*dA*eG*eG*eA*eG*eA) [compound 206229]” to “206230 (antisense e[5mC]*e[5mC]*eA*eG*eG*dT*dG*dA*dG*dT*dG*dT*dG*d[5mC]*dA*eA*eG*eG*e[5mC]*eA) [compound 206230]”, the “% INHIB” value rises from 66% to 74%.

Going from “206231 (antisense eG*e[5mC]*eA*eG*eT*dG*d[5mC]*d[5mC]*d[5mC]*dG*d[5mC]*dT*dG*d[5mC]*dA*eA*eG*eA*eG*e[5mC]) [compound 206231]” to “206232 (antisense eA*eT*eG*e[5mC]*eT*dG*d[5mC]*dA*dG*d[5mC]*dT*d[5mC]*d[5mC]*dT*d[5mC]*e[5mC]*eT*eG*eG*eG) [compound 206232]”, the “% INHIB” value rises from 76% to 81%.

Compared with “206233 (antisense eG*eG*eT*e[5mC]*e[5mC]*dT*dT*dG*d[5mC]*dG*d[5mC]*dT*dG*dG*dG*eA*eG*eG*e[5mC]*e[5mC]) [compound 206233]”, “206234 (antisense e[5mC]*eA*eT*eT*e[5mC]*dT*dT*dG*dT*dT*d[5mC]*dT*dG*dG*dG*eA*eA*eG*eG*eT) [compound 206234]” is lower in “% INHIB” value: 80% for the first, 61% for the second.

Compared with “206235 (antisense eT*eA*eG*e[5mC]*eT*dG*dG*dG*dA*dT*dT*dA*d[5mC]*dA*dG*eT*eA*e[5mC]*eT*eA) [compound 206235]”, “206236 (antisense e[5mC]*eT*eG*eG*eA*d[5mC]*d[5mC]*dT*dA*d[5mC]*d[5mC]*dT*d[5mC]*dG*d[5mC]*eA*e[5mC]*eA*eG*eG) [compound 206236]” is lower in “% INHIB” value: 53% for the first, 43% for the second.

Compared with “206237 (antisense eG*eT*e[5mC]*e[5mC]*eT*dG*d[5mC]*d[5mC]*d[5mC]*d[5mC]*dA*d[5mC]*dA*dG*dA*e[5mC]*eT*e[5mC]*eA*eG) [compound 206237]”, “206238 (antisense eG*e[5mC]*eA*eT*eG*dA*dA*dG*dG*d[5mC]*dA*d[5mC]*dT*dA*d[5mC]*e[5mC]*eT*e[5mC]*e[5mC]*e[5mC]) [compound 206238]” is lower in “% INHIB” value: 62% for the first, 53% for the second.

Same assay, conditions: real-time PCR, bound stated

In the case of “aaaggatggcctcttctcgg (eA*eA*eA*eG*eG*dA*dT*dG*dG*d[5mC]*d[5mC]*dT*d[5mC]*dT*dT*e[5mC]*eT*e[5mC]*eG*eG; antisense) [ISIS 206205]”, the “inhibition of human LIM domain kinase 1 expression (text summary of Table 1)” value is reported as “at least 65%”.
“aacctcatgcactcgacggg (eA*eA*e[5mC]*e[5mC]*eT*d[5mC]*dA*dT*dG*d[5mC]*dA*d[5mC]*dT*d[5mC]*dG*eA*e[5mC]*eG*eG*eG; antisense) [ISIS 206161]” was tested, and the “inhibition of human LIM domain kinase 1 expression (text summary of Table 1)” value was “at least 65%”.
